Data: patent US20080095869A1, “Anticancer Treatment” (priority 2004, published 2008)
Read-outs that look alike come from different tables or passages of the source.

Tests used:
tNOX from HeLa = biological target: T1, tNOX from HeLa (Homo sapiens, UniProt Q16206); assay: Spectrophotometric NADH oxidase assay, NOX activity from the HeLa cell surface; assay type: biochemical; conditions: for Response of NOX activity from the HeLa cell surface when combined with sulforaphane: sequential additions, preceding or following sulforaphane (FIGS. 7, 8)
T1 construct: The cells were thawed at room temperature, resuspended and incubated at 37° C. for 1 h to release the protein
T1 sequence (Q16206 1-610): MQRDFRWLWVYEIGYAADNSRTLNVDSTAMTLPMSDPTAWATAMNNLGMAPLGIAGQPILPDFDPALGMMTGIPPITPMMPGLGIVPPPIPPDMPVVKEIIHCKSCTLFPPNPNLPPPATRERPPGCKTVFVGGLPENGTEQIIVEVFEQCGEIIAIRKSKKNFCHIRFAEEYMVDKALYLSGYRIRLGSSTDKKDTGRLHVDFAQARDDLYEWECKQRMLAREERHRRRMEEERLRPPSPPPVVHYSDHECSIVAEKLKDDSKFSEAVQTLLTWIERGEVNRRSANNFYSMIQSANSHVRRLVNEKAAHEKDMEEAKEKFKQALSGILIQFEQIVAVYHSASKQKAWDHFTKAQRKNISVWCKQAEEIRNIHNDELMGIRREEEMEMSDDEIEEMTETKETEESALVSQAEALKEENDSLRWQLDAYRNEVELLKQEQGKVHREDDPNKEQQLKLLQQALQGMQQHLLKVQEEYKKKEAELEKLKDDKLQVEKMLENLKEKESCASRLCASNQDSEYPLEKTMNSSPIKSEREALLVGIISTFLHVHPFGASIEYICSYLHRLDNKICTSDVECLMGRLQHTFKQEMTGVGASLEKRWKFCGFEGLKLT
Protocol: HeLa S cells (grown in suspension) were collected by centrifugation and shipped frozen by a commercial supplier (Cellex Biosciences, Minneapolis, Minn.) In 0.1 m sodium acetate, pH 5, in a ratio of 1 mL packed cell volume to 1 mL acetate. The cells were thawed at room temperature, resuspended and incubated at 37° C. for 1 h to release the protein. The cells were removed by centrifugation at 37000 g for 60 min and the cell-free supernatants were refrozen and stored in 1 mL samples at −70° C.

[1] = system: CNOX activity of soybean plasma membranes; conditions: plasma membranes from dark-grown soybean hypocotyls, lack tNOX (FIG. 5)
Protocol: (§1) NADH oxidase activity was determined as the disappearance of NADH measured at 340 nm in a reaction mixture containing 25 mM Tris-Mes buffer (pH 7.2), 1 mM KCN to inhibit low levels of mitochondrial oxidase activity, and 150 ([…] NADH at 37° C. with temperature control (±0.5°) and stirring (14). Activity was measured using paired Hitachi U3210 spectrophotometers. Assays were initiated by addition of NADH. With plasma membranes and whole cells, assays were for 1 min and were repeated on the same sample every 1.5 min for the time indicated. A millimolar extinction coefficient of 6.22 was used to determine specific activity. Proteins were estimated by the bicinchoninic acid method with bovine serum albumin as standard.

[2] = biological target: CNOX of non-cancer MCF-10A human mammary epithelia (Homo sapiens, UniProt Q8TC92); conditions: non-cancer cells which lack tNOX (FIG. 4)
CNOX of non-cancer MCF-10A human mammary epithelia, sequence (Q8TC92 whole entry): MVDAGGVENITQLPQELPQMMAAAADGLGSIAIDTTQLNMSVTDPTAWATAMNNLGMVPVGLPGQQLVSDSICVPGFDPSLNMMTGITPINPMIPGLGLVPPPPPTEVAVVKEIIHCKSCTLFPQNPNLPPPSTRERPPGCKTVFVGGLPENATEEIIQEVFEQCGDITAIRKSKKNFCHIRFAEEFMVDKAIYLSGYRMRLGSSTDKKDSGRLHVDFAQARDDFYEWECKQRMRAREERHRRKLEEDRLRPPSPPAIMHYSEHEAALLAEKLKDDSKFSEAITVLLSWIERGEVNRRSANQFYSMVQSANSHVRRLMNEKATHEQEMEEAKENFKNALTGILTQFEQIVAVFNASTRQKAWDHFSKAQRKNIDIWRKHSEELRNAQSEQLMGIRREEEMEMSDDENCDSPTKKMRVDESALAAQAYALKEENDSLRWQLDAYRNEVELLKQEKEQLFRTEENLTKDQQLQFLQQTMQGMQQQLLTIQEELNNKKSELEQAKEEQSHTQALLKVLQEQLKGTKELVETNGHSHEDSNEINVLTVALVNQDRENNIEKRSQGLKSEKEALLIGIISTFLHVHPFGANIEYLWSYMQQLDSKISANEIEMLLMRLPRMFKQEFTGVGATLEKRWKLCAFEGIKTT
Protocol: as §1

[3] = biological target: tNOX of 4T1 mouse mammary cells (Mus musculus, UniProt Q8R0Z2); assay: biochemical
tNOX of 4T1 mouse mammary cells, sequence (Q8R0Z2 whole entry): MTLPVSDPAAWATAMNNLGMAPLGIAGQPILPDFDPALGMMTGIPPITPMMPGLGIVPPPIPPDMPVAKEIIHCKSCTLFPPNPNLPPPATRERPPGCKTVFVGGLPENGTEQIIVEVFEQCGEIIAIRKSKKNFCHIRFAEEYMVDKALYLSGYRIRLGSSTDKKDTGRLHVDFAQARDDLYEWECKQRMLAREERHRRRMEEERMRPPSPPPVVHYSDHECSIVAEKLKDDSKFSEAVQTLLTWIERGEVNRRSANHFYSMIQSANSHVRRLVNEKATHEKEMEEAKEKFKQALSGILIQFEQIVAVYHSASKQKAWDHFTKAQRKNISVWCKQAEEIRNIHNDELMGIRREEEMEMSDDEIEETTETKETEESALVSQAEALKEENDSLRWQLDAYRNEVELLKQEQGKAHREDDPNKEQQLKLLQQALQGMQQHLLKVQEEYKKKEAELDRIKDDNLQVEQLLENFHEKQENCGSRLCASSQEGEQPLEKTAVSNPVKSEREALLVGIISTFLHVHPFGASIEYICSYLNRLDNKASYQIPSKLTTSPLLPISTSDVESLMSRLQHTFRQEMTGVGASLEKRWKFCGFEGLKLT
Protocol: as §1

HeLa cells = assay: Growth of HeLa cells in culture (96-well crystal violet); assay type: cell-based; conditions: Homo sapiens, 48 and 72 h of treatment (FIG. 6), read-out: EC50 for inhibition of growth of HeLa cells
Protocol: HeLa (ATCC CCL-2) human cervical adenocarcinoma cells were cultured in minimal essential medium (Eagle), with 2 mM L-glutamine and Earle's balanced salt solution adjusted to contain 1.5 g/L sodium bicarbonate, 0.2 mM non-essential amino adds, 1.0 mM sodium pyruvate and supplemented with 10% bovine calf serum (heat-inactivated) plus 50 mg/L gentamycin sulfate (Sigma).
HeLa (5×10^4) or CHO (10^4) cells were distributed into each plate well (Costar tissue culture plate).

[4] = system: human mammary cancer (BT-20) cells; assay: cells; conditions: BT-20, read-out: EC50 for inhibition of growth of BT-20 cells
Protocol: (§2) Growth was determined using a 96-well plate assay as described by Lin et al. (17). HeLa (5×10^4) or CHO (10^4) cells were distributed into each plate well (Costar tissue culture plate). The cells were grown at 37° C. for 24 h after which the substances to be evaluated were added followed by incubation for an additional 48 or 72 h as indicated. Medium was removed and the cells were washed with phosphate-buffered saline and then fixed by addition of […] 2.5% (v/v) glutaraldehyde for 0.5 h followed by a distilled water wash. The cells were stained with […] 1% aqueous crystal violet for 0.5 h, washed exhaustively with distilled water followed by […] 33% (v/v) acetic acid for 5 min. The absorbance was determined at 580 nm using an automated plate reader. Growth was determined according to the formula [(b−c)×100]/(a−c)] where a=absorbance of cells in medium without treatment b=cells in medium with treatment and c=medium alone (background).

non-cancer MCF-10A cells = conditions: compared with cancer cells
Protocol: as §2

COc1cc(CNC(=O)CCCC/C=C/C(C)C)ccc1O [capsaicin, 8-methyl-N-vanillyl-6-noneamide]
Response of NOX activity from the HeLa cell surface when combined with sulforaphane (tNOX from HeLa): beneficial response

C[S@@+]([O-])CCCCN=C=S [L-Sulforaphane]
EC50 (tNOX from HeLa; NOX activity from HeLa cell surface (FIGS. 1 and 2)): ~1000 µM | Effect on CNOX activity of soybean plasma membranes [1]: unaffected | Effect on CNOX activity of soybean plasma membranes ([1]; listed as Sulforaphane): does not inhibit | Effect on CNOX (NOX activity) of MCF-10A human mammary epithelia [2]: unaffected | Effect on CNOX (NOX activity) of MCF-10A human mammary epithelia ([2]; listed as Sulforaphane): does not inhibit | EC50 [3]: ~1000 µM | EC50 (HeLa cells): 100 to 1000 µM | EC50 [4]: 100 to 1000 µM | Inhibition of growth of non-cancer MCF-10A cells (non-cancer MCF-10A cells): inhibited to nearly the same extent as the cancer cells

(−)-epigallocatechin gallate [EGCg]
Response of NOX activity from the HeLa cell surface when combined with sulforaphane (tNOX from HeLa): antagonistic

COc1cc(CN)ccc1O [vanillylamine]
Response of NOX activity from the HeLa cell surface when combined with sulforaphane (tNOX from HeLa): beneficial response
